# Source: patent publication US9708286B2, “Ingenol-3-acylates III and ingenol-3-carbamates” (LEO Laboratories Limited, priority 2010, dated 2017)
# Like-named read-outs stand apart in the source and are kept apart here.
# What was measured:
# Format in all cases: cell-based
# [1] = system: PMN's (polymorphonuclear leukocytes); assay: Neutrophil oxidative burst; conditions: Leukocyte, 40 min, normalized to 5×10^−7 M PEP0005
# Summary of the method: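 Human buffy-coat neutrophils (2.5×10^5/well) in HBSS with 0.1% BSA, 5 mM glucose treated with compound premixed with 10 μM hydroethidine for 40 min at RT; fluorescence read at 485/579 nm. Normalized to 5×10^−7 M PEP0005; Rel EC50 is midway between fitted top and bottom, Abs EC50 gives 50% of PEP0005 maximum.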
# [2] = system: Primary human epidermal keratinocytes, HeKa; assay: HeKa cytokine release (IL-8); conditions: Homo sapiens, read-out: HeKa cytokine release (IL-8) Rel EC50 range
# Summary of the method: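 Seeded cells exposed to compound dilutions for 6 h at 37° C; IL-8 in supernatant quantified by MSD sandwich electrochemiluminescence immunoassay. Effects normalized to positive control (1.5×10^−7 M PEP0005), four-parameter sigmoidal fit; Rel EC50 is concentration midway between fitted top and bottom.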
# HeLa cells = assay: Necrosis assay; conditions: Homo sapiens, 0.5 h, read-out: HeLa necrosis EC50 range
# Summary of the method: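 HeLa cells treated with compound at 10 μM to 400 μM (final) for 30 min at 37° C., viability then measured by PrestoBlue fluorescence (ex 535/em 630 nm). Normalized to 1% DMSO and 400 μM ingenol mebutate controls; AbsEC50 from four-parameter sigmoidal fit.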
# [3] = read-out: Neutrophil oxidative burst Rel EC50 range, PMN from buffy coats, 40 min at RT, hydroethidine fluorescence
SMILES,"EC50 [1, 3] [nM]","EC50 ([2]; HEKa, 6 h) [nM]",EC50 (HeLa cells; HeLa) [nM],"EC50 ([1]; PMN from buffy coats, 40 min at RT, hydroethidine fluorescence, read-out: Neutrophil oxidative burst Rel EC50 range) [nM]","EC50 ([2]; HeKa cells, 6 h at 37° C., IL-8 by MSD assay, normalized to 1.5×10^−7 M PEP0005) [nM]","EC50 (HeLa cells; HeLa cells, 30 min at 37° C., PrestoBlue, AbsEC50, normalized to 400 μM ingenol mebutate) [nM]"
"CC1=C[C@]23C(=O)[C@@H](C=C(CO)[C@@H](O)[C@]2(O)[C@H]1OC(=O)N(C)c1ccccc1)[C@H]1[C@@H](C[C@H]3C)C1(C)C [Compound 705, Ingenol 3-(N-methyl-N-phenyl-carbamate)]",< 20,< 20,150000 to 350000,–,–,–
"CCN(CC)C(=O)O[C@H]1C(C)=C[C@]23C(=O)[C@@H](C=C(CO)[C@@H](O)[C@]12O)[C@H]1[C@@H](C[C@H]3C)C1(C)C [Compound 706, Ingenol 3-(N,N-diethyl-carbamate)]",< 20,20 to 100,> 350000,–,–,–
"CC1=C[C@]23C(=O)[C@@H](C=C(CO)[C@@H](O)[C@]2(O)[C@H]1OC(=O)N(C)C1CCCCC1)[C@H]1[C@@H](C[C@H]3C)C1(C)C [Compound 709, Ingenol 3-(N-cyclohexyl-N-methyl-carbamate)]",< 20,< 20,150000 to 350000,–,–,–
"CC1=C[C@]23C(=O)[C@@H](C=C(CO)[C@@H](O)[C@]2(O)[C@H]1OC(=O)N1CCCC(C)(C)C1)[C@H]1[C@@H](C[C@H]3C)C1(C)C [Compound 713, Ingenol 3-(3,3-dimethyl-piperidine-1-carboxylate)]",20 to 100,< 20,150000 to 350000,–,–,–
"CC1=C[C@]23C(=O)[C@@H](C=C(CO)[C@@H](O)[C@]2(O)[C@H]1OC(=O)N(C)C1CCCc2ccccc21)[C@H]1[C@@H](C[C@H]3C)C1(C)C (stereo partly drawn) [Compound 714, Ingenol 3-(N-Methyl-N-tetralin-1-yl-carbamate)]",> 100,< 20,< 150000,–,–,–
"CC1=C[C@]23C(=O)[C@@H](C=C(CO)[C@@H](O)[C@]2(O)[C@H]1OC(=O)N(C)[C@@H](C)c1ccccc1)[C@H]1[C@@H](C[C@H]3C)C1(C)C [Compound 716, Ingenol 3-(N-methyl-N—((S)-1-phenethyl)-carbamate)]",20 to 100,< 20,< 150000,–,–,–
"CC1=C[C@]23C(=O)[C@@H](C=C(CO)[C@@H](O)[C@]2(O)[C@H]1OC(=O)N(C)CC1CC1)[C@H]1[C@@H](C[C@H]3C)C1(C)C [Compound 717, Ingenol 3-(N-methyl-N-(cyclopropylmethyl)-carbamate)]",< 20,< 20,> 350000,–,–,–
"CC1=C[C@]23C(=O)[C@@H](C=C(CO)[C@@H](O)[C@]2(O)[C@H]1OC(=O)N(C)c1cccc(F)c1)[C@H]1[C@@H](C[C@H]3C)C1(C)C [Compound 718, Ingenol 3-(N-(3-fluoro-phenyl)-N-methyl-carbamate)]",< 20,< 20,150000 to 350000,–,–,–
"CC1=C[C@]23C(=O)[C@@H](C=C(CO)[C@@H](O)[C@]2(O)[C@H]1OC(=O)N(C)c1cc(C)n(C)n1)[C@H]1[C@@H](C[C@H]3C)C1(C)C [Compound 721, Ingenol 3-(N-(1,5-dimethylpyrazol-3-yl)-N-methyl-carbamate)]",20 to 100,20 to 100,> 350000,–,–,–
"CC1=C[C@]23C(=O)[C@@H](C=C(CO)[C@@H](O)[C@]2(O)[C@H]1OC(=O)N(C)C1CCCC1)[C@H]1[C@@H](C[C@H]3C)C1(C)C [Compound 722, Ingenol 3-(N-cyclopentyl-N-methyl-carbamate)]",< 20,20 to 100,> 350000,–,–,–
"CC1=C[C@]23C(=O)[C@@H](C=C(CO)[C@@H](O)[C@]2(O)[C@H]1OC(=O)N(C)C1CC1)[C@H]1[C@@H](C[C@H]3C)C1(C)C [Compound 723, Ingenol 3-(N-cyclopropyl-N-methyl-carbamate)]",< 20,20 to 100,> 350000,–,–,–
"CC1=C[C@]23C(=O)[C@@H](C=C(CO)[C@@H](O)[C@]2(O)[C@H]1OC(=O)N1CCCc2ccccc21)[C@H]1[C@@H](C[C@H]3C)C1(C)C [Compound 726, Ingenol 3-(3,4-dihydro-2H-quinoline-1-carboxylate)]",20 to 100,< 20,< 150000,–,–,–
"CC1=C[C@]23C(=O)[C@@H](C=C(CO)[C@@H](O)[C@]2(O)[C@H]1OC(=O)N1CCc2ccccc21)[C@H]1[C@@H](C[C@H]3C)C1(C)C [Compound 727, Ingenol 3-(indoline-1-carboxylate)]",< 20,< 20,< 150000,–,–,–
"CC1=C[C@]23C(=O)[C@@H](C=C(CO)[C@@H](O)[C@]2(O)[C@H]1OC(=O)N(C)c1ccc(Cl)cc1)[C@H]1[C@@H](C[C@H]3C)C1(C)C [Compound 729, Ingenol 3-(N-(4-chloro-phenyl)-N-methyl-carbamate)]",< 20,< 20,150000 to 350000,–,–,–
"CC1=C[C@]23C(=O)[C@@H](C=C(CO)[C@@H](O)[C@]2(O)[C@H]1OC(=O)N(C)c1ccccc1C)[C@H]1[C@@H](C[C@H]3C)C1(C)C [Compound 732, Ingenol 3-(N-methyl-N-(2-methyl-phenyl)-carbamate)]",< 20,< 20,150000 to 350000,–,–,–
"CCN(C(=O)O[C@H]1C(C)=C[C@]23C(=O)C(C=C(CO)[C@@H](O)[C@]12O)[C@H]1[C@@H](C[C@H]3C)C1(C)C)c1ccccc1 [Compound 734, Ingenol 3-(N-ethyl-N-phenyl-carbamate)]",20 to 100,< 20,150000 to 350000,–,–,–
"CC1=C[C@]23C(=O)[C@@H](C=C(CO)[C@@H](O)[C@]2(O)[C@H]1OC(=O)N1CC2CCC(CC2)C1)[C@H]1[C@@H](C[C@H]3C)C1(C)C [Compound 736, Ingenol 3-(3-azabicyclo[3.2.2]nonane-3-carboxylate)]",–,–,–,< 20,< 20,150000 to 350000
"CC1=C[C@]23C(=O)[C@@H](C=C(CO)[C@@H](O)[C@]2(O)[C@H]1OC(=O)N1CCOc2ccccc21)[C@H]1[C@@H](C[C@H]3C)C1(C)C [Compound 737, Ingenol 3-(2,3-dihydro-1,4-benzoxazine-4-carboxylate)]",< 20,< 20,< 150000,–,–,–
"CC1=C[C@]23C(=O)[C@@H](C=C(CO)[C@@H](O)[C@]2(O)[C@H]1OC(=O)N(C)c1ccccc1F)[C@H]1[C@@H](C[C@H]3C)C1(C)C [Compound 738, Ingenol 3-(N-(2-fluoro-phenyl)-N-methyl-carbamate)]",< 20,20 to 100,150000 to 350000,–,–,–
"CC1=C[C@]23C(=O)[C@@H](C=C(CO)[C@@H](O)[C@]2(O)[C@H]1OC(=O)N1c2ccccc2OCC1C)[C@H]1[C@@H](C[C@H]3C)C1(C)C (stereo partly drawn) [Compound 739, Ingenol 3-(3-methyl-2,3-dihydro-1,4-benzoxazine-4-carboxylate)]",< 20,< 20,< 150000,–,–,–
"CC1=C[C@]23C(=O)[C@@H](C=C(CO)[C@@H](O)[C@]2(O)[C@H]1OC(=O)N(C)c1cccc(C)c1)[C@H]1[C@@H](C[C@H]3C)C1(C)C [Compound 743, Ingenol 3-(N-methyl-N-(3-methyl-phenyl)-carbamate)]",< 20,< 20,150000 to 350000,–,–,–
